Assay results reported in patent US20150025077A1 (COYOTE PHARMACEUTICALS, INC., priority 2012, published 2015).
Several values for one entry are separate records, joined by “and”; a condition that tells them apart may be missing. Equal entries are not always repeated.

Assays:
SOD1 mice = experiment: Survival in the SOD1 mouse model of ALS; format: in vivo
[1] = mouse, in vivo, po, 12 mg/kg
Excerpt: Blood and serum samples from days P70 and P100 were collected on three animals from each of the six treatment groups. Hematology measures were white blood cell count, red blood cell count, hemoglobin, hematocrit, mean corpuscular volume, mean corpuscular hemoglobin, mean corpuscular hemoglobin concentration, and platelets. Chemistry values were alanine aminotransferase, aspartate aminotransferase, albumin, total protein, gamma globulin, blood urea nitrogen, cholesterol, and glucose. No analyses were conducted on any samples collected after P100.

HSP60 = HSP60 gene expression in rat brain tissue, qRT-PCR; format: in vivo; conditions: 12 mg/kg oral
Protocol: […] Expression of selected HSPs was detected using qRT-PCR with expression of the GAPDH gene used as the control. To represent the effect of CNS-102 on HSP expression, mean fold change is calculated as CNS-102 treated/PBS treated for each HSP at each time point.

[2] = system: Murine neuro2A neuroblastoma cells; experiment: Neurite outgrowth of neuro2A cells with GGTI-298 (Example 30); format: cell-based, mouse
Protocol: Differentiation was induced and cells incubated with geranylgeranyl transferase I inhibitor, GGTI-298. After 24 h digital images were taken and neurite outgrowth was quantified. The comparisons of the neuroprotective effect of these three compounds are shown below.
The estimated mean log10 counts, from five replicate wells for each treatment group were calculated by PROC GLM in SAS assuming a pooled estimate of variation.
The estimated mean log 10 counts from five replicate wells for each treatment group were calculated by PROC GLM in SAS assuming a pooled estimate of variation.
Differences in mean log(counts) between treatments for each concentration were calculated using PROC GLM in SAS. The p-value given is for the comparison of the estimated difference to zero, the expected difference value for no treatment effect. The anti-log of the differences represent the estimated ratio of counts (relative effect on inhibition) and are tabulated below along with the lower and upper 95% confidence intervals.

Sprague-Dawley rats = experiment: Kainic acid induced neurodegeneration and seizure behaviors in rats (Examples 20, 21); format: in vivo, rat; conditions: oral
Excerpt: Seizure behaviors were observed and scored (Ref. R. J. Racine, Modification of seizure activity by electrical stimulation: II. Motor seizure, Electroencephalogr. Clin. […] Modifications were made for the methods). Brain tissues of rats were sectioned on histology slides, and neurons in hippocampus tissues were stained by Nissl. Neurons in dentate gyrus tissues damaged by Kainic acid were quantified. The Memantine composition used in comparison refers to a commercially available NMDA receptor […]. […] Seizure behaviors were observed and scored (Ref. R. J. Racine, Modification of seizure activity by electrical stimulation: II. Motor seizure, Electroencephalogr. Clin. […] Modifications were made for the methods). Brain tissues of rats were sectioned on histology slides, and neurons in hippocampus tissues were stained by Nissl. Neurons damaged by Kainic acid and behavior scores were quantified.

Sod1 mutant mice = format: in vivo
Excerpt: Values represent means±SEMs.
Subjects were weighed and tested for Grip Strength, and assigned Clinical and Neurological scores three times a week beginning at P90 and five times a week beginning at P100. The table below summarizes the experimental design of the study.
The grip strength test assesses motor function and control of the fore- and hindpaws. Mice were allowed to grab the bars on the Chatillon DFIS-10 digital force gauge (Largo, Fla.), while being gently pulled parallel away from the bars by the tail. The maximum force measured prior to release of the subject's paw from the bar was recorded.
Animals were scored using the scoring system tabulated below.

Neuro2A cells = Neuro2A cells that extended neurites, with GGTI-298 (Example 18); format: cell-based; conditions: 0.1-1 μM; vehicle 0.0-0.20
Excerpt: After differentiation was induced, cells that extended neurites were counted.

[3] = 10 nM, CNS-101/CNS-102 experiment
[4] = 100 nM, CNS-101/CNS-102 experiment
[5] = 100 nM, CNS-102/CNS-103 experiment
[6] = 1000 nM, CNS-101/CNS-102 experiment
[7] = 1000 nM, CNS-102/CNS-103 experiment
[8] = 10000 nM, CNS-101/CNS-102 experiment

CC(=O)CC/C=C(\C)CC/C=C(\C)CC/C=C(\C)CCC=C(C)C [CNS-102]
Median Survival (SOD1 mice; CNS-102 12 mg/kg or riluzole 8 mg/kg daily oral from P38, vehicle 125.0): 133.0 days | % Increase in median time to death compared to vehicle group (SOD1 mice; parametric regression (gamma distribution)): 9% and 9.5% | ABSOLUTE BASOPHIL [1]: 0 per mm^3 | ABSOLUTE EOSINOPHIL [1]: 61.6 per mm^3 | ABSOLUTE LYMPHOCYTE [1]: 3922.4 per mm^3 | ABSOLUTE MONOCYTE [1]: 49.8 per mm^3 | ABSOLUTE NEUTROPHIL SEG [1]: 659.6 per mm^3 | ALKALINE PHOSPHATASE [1]: 70.7 U/L | BASOPHIL [1]: 0.0% | BICARBONATE [1]: 5.0 mg/dL | BUN [1]: 28.8 mg/dL | CALCIUM [1]: 7.7 mg/dL | CHOLESTEROL [1]: 72.4 mg/dL | CREATININE [1]: <1 mg/dL | DIRECT BILIRUBIN [1]: 0.0 mg/dL | EOSINOPHIL [1]: 1.5% | GLUCOSE [1]: 207.6 mg/dL | HCT [1]: 46.0% | HGB [1]: 13.6 gram/dL | INDIRECT BILIRUBIN [1]: 0.0 mg/dL | LYMPHOCYTE [1]: 84.0% | MCH [1]: 15.5 pg | MCHC [1]: 29.5% | MCV [1]: 52.6 U^3 | MONOCYTE [1]: 0.8% | NEUTROPHIL SEG [1]: 13.8% | NRBC [1]: 0.0 per 100 WBC | PHOSPHORUS [1]: 5.7 mg/dL | PLATELET COUNT [1]: 1128.6 Thousands | RBC [1]: 8.8 Millions | SGOT (AST) [1]: 46.3 U/L | SGPT (ALT) [1]: 37.8 U/L | TOTAL BILIRUBIN [1]: 0.0 mg/dL | WBC [1]: 4.7 thousands | HSP60 mean fold change (CNS-102 treated/PBS treated), mean ± SD (HSP60; 24 h): 1.26 ± 0.07 | HSP60 mean fold change (CNS-102 treated/PBS treated), mean ± SD (HSP60; 48 h): 0.89 ± 0.08 | HSP60 mean fold change (CNS-102 treated/PBS treated), mean ± SD (HSP60; 72 h): 1.72 ± 0.07 | HSP60 mean fold change (CNS-102 treated/PBS treated), mean ± SD (HSP60; 96 h): 1.57 ± 0.16 | Ratio % of neurite outgrowth, CNS-102 to CNS-101 ([2]; 10 nM): 113.6% | Protection % [2, 3]: 16.6% | Median Counts (cells with neurite outgrowth) ([2]; 10 nM, CNS-101/CNS-102 experiment, no inhibition 95.5, PBS 21.5): 33.8 | ratio of counts relative to no inhibition [2, 3]: 0.354 | Ratio % of neurite outgrowth, CNS-102 to CNS-101 ([2]; 100 nM): 112.1% | Ratio % of neurite outgrowth, CNS-102 to CNS-103 ([2]; 100 nM): 114.3% | Protection % [2, 4]: 29.6% | Median Counts (cells with neurite outgrowth) ([2]; 100 nM, CNS-101/CNS-102 experiment, no inhibition 95.5, PBS 21.5): 43.4 | ratio of counts relative to no inhibition [2, 4]: 0.454 | Protection % [2, 5]: 35.9% | Median Counts (cells with neurite outgrowth) ([2]; 100 nM, CNS-102/CNS-103 experiment, no inhibition 60.3, PBS 18.5): 33.5 | ratio of counts relative to no inhibition [2, 5]: 0.556 | Ratio % of neurite outgrowth, CNS-102 to CNS-101 ([2]; 1000 nM): 122.7% | Ratio % of neurite outgrowth, CNS-102 to CNS-103 ([2]; 1000 nM): 83.0% | Protection % [2, 6]: 39.9% | Median Counts (cells with neurite outgrowth) ([2]; 1000 nM, CNS-101/CNS-102 experiment, no inhibition 95.5, PBS 21.5): 51.0 | ratio of counts relative to no inhibition [2, 6]: 0.534 | Protection % [2, 7]: 12.7% | Median Counts (cells with neurite outgrowth) ([2]; 1000 nM, CNS-102/CNS-103 experiment, no inhibition 60.3, PBS 18.5): 23.8 | ratio of counts relative to no inhibition [2, 7]: 0.395 | Ratio % of neurite outgrowth, CNS-102 to CNS-101 ([2]; 10000 nM): 137.8% | Protection % [2, 8]: 22.6% | Median Counts (cells with neurite outgrowth) ([2]; 10000 nM, CNS-101/CNS-102 experiment, no inhibition 95.5, PBS 21.5): 38.2 | ratio of counts relative to no inhibition [2, 8]: 0.400 | maximum protection ([2]; CNS-101/CNS-102 experiment (FIG. 4A)): ~40% | maximum protection ([2]; CNS-102/CNS-103 experiment (FIG. 4B)): ~36% | Mean of Hippocampus CA3 Neurons Damaged (Sprague-Dawley rats; 3 mg/Kg rat): 10.25 Arbitrary units | Mean of Seizure behaviors scores (Sprague-Dawley rats; 3 mg/Kg rat): 27.5 | Mean of Hippocampus CA3 Neurons Damaged (Sprague-Dawley rats; 12 mg/Kg rat): 10.16 Arbitrary units | Mean of Seizure behaviors scores (Sprague-Dawley rats; 12 mg/Kg rat): 22.5 | Mean of Hippocampus CA3 Neurons Damaged (Sprague-Dawley rats; 25 mg/Kg rat): 1.97 Arbitrary units | Mean of Seizure behaviors scores (Sprague-Dawley rats; 25 mg/Kg rat): 25.75 | Seizure behaviors scores (Sprague-Dawley rats; Kainic acid, vehicle 34): 18.8 | clinical and neuroscore testing (Sod1 mutant mice; Sod1 mutant mice, CNS-102 12 mg/kg or Riluzole 8 mg/kg daily oral, vs vehicle): tended to outperform group D | neuroscore testing (Sod1 mutant mice; Sod1 mutant mice, several timepoints around and after P100, vs vehicle): significantly outperforms group D | blood and neurology examinations (Sod1 mutant mice; more than two months of once-daily oral 12 mg/kg): no abnormalities in blood and neurology examinations | body weight (Sod1 mutant mice; wild type mice, group F (CNS-102) vs group E (vehicle)): no noticeable differences | toxicity or behavioral abnormalities (Sod1 mutant mice; wildtype animals dosed with vehicle versus CNS-102 12 mg/kg daily): does not lead to obvious toxicity or behavioral abnormalities | Mean of cell numbers (cells that extended neurites) (Neuro2A cells): 0.45-0.65 Arbitrary units
